Experimental findings from US9365522B2, “Pyrazole amide derivative” (AMGEN INC., priority 2015, dated 2016) are described below.

Molecules are shown by their SMILES.

In this assay the target is T1, human RORγ-LBD (Homo sapiens, UniProt P51449).
T1 construct: made in house; host or cells: E. coli (BL-21)
T1 sequence (P51449 262-518): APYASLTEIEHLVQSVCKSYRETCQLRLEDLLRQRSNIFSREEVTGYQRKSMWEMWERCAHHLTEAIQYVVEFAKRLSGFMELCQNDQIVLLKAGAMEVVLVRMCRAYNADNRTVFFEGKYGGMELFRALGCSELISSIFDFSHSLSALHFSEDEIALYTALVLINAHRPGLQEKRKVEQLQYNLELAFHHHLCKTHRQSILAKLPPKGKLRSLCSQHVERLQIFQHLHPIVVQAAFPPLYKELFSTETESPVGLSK
Kind of assay: ROR gamma coactivator peptide recruitment Alphascreen assay (RORγ-LBD binding to GRIP1 coactivator peptide). The note with it: 5 nM human RORγ-LBD, 30 nM 7-β-hydroxycholesterol, 50 nM biotinylated GRIP1 coactivator peptide, overnight incubation at room temperature; read-out: result (pIC50, RORγ coactivator peptide recruitment Alphascreen assay) (converted). In kind it is biochemical. The gist of the method:
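His/Flag-tagged human RORγ-LBD (aa 262-518, E. coli-expressed, 5 nM) with agonist 7-β-hydroxycholesterol (30 nM) and biotinylated GRIP1 LXXLL peptide (50 nM) in HEPES pH 7.4 buffer, 2.5% DMSO. Compound 1-in-2 dilutions; Alphascreen bead signal read after overnight incubation at room temperature; pIC50 calculated.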

As for `CC(C)(C)CN(CC(=O)c1c(Cl)cccc1Cl)C(=O)c1cnn([C@H]2CC[C@H](C(=O)O)CC2)c1C(F)(F)F` [Example 545, trans-4-(4-((2-(2,6-dichlorophenyl)-2-oxoethyl)(2,2-dimethylpropyl)carbamoyl)-5-(trifluoromethyl)-1H-pyrazol-1-yl)cyclohexanecarboxylic acid], the IC50 was 4.9 nM.
Under `CC1(C)CCC(CN(CCc2c(Cl)cncc2Cl)C(=O)c2cnn([C@H]3CC[C@H](C(=O)O)CC3)c2C(F)(F)F)CC1` [Example 546, trans-4-(4-((2-(3,5-dichloro-4-pyridinyl)ethyl)((4,4-dimethylcyclohexyl)methyl)carbamoyl)-5-(trifluoromethyl)-1H-pyrazol-1-yl)cyclohexanecarboxylic acid] stands 11.2 nM; under `CC(C)(C)CN(CCc1c(Cl)cncc1Cl)C(=O)c1cnn([C@H]2CC[C@H](C(=O)O)CC2)c1C(F)(F)F` [Example 547], 19.5 nM; under `CC(C)(C)C#CCN(CCc1c(Cl)cncc1Cl)C(=O)c1cnn([C@H]2CC[C@H](C(=O)O)CC2)c1C(F)(F)F` [Example 548, trans-4-(4-((2-(3,5-dichloro-4-pyridinyl)ethyl)(4,4-dimethyl-2-pentyn-1-yl)carbamoyl)-5-(trifluoromethyl)-1H-pyrazol-1-yl)cyclohexanecarboxylic acid], 11.7 nM.
The same measure for `CC1(CN(CCc2c(Cl)cncc2Cl)C(=O)c2cnn([C@H]3CC[C@H](C(=O)O)CC3)c2C(F)(F)F)CCCCC1` [Example 549, trans-4-(4-((2-(3,5-dichloro-4-pyridinyl)ethyl)((1-methylcyclohexyl)methyl)carbamoyl)-5-(trifluoromethyl)-1H-pyrazol-1-yl)cyclohexanecarboxylic acid]: 1.74 nM.
Under `CC1(C)CCC(N(CCc2c(Cl)cncc2Cl)C(=O)c2cnn([C@H]3CC[C@H](C(=O)O)CC3)c2C(F)(F)F)CC1` [Example 550, trans-4-(4-((2-(3,5-dichloro-4-pyridinyl)ethyl)(4,4-dimethylcyclohexyl)carbamoyl)-5-(trifluoromethyl)-1H-pyrazol-1-yl)cyclohexanecarboxylic acid] stands 21.4 nM; under `C[C@@]1(CN(CCc2c(Cl)cncc2Cl)C(=O)c2cnn([C@H]3CC[C@H](C(=O)O)CC3)c2C(F)(F)F)CCCO1` [Example 552, trans-4-(4-((2-(3,5-dichloro-4-pyridinyl)ethyl)(((2S)-2-methyltetrahydro-2-furanyl)methyl)carbamoyl)-5-(trifluoromethyl)-1H-pyrazol-1-yl)cyclohexanecarboxylic acid], 331 nM; under `CC1(C)CC(CN(CCc2c(Cl)cncc2Cl)C(=O)c2cnn([C@H]3CC[C@H](C(=O)O)CC3)c2C(F)(F)F)C1` [Example 553, trans-4-(4-((2-(3,5-dichloro-4-pyridinyl)ethyl)((3,3-dimethylcyclobutyl)methyl)carbamoyl)-5-(trifluoromethyl)-1H-pyrazol-1-yl)cyclohexanecarboxylic acid], 2.75 nM.
As to `CC1(C)C[C@H]1CN(CCc1c(Cl)cncc1Cl)C(=O)c1cnn([C@H]2CC[C@H](C(=O)O)CC2)c1C(F)(F)F` [Example 554, trans-4-(4-((2-(3,5-dichloro-4-pyridinyl)ethyl)(((1R)-2,2-dimethylcyclopropyl)methyl)carbamoyl)-5-(trifluoromethyl)-1H-pyrazol-1-yl)cyclohexanecarboxylic acid], the IC50 is 7.08 nM.
Under `CC1(C)CC(CN(CCc2c(Cl)cncc2Cl)C(=O)c2cnn([C@H]3CC[C@](C)(C(=O)O)CC3)c2C(F)(F)F)C1` [Example 556, trans-4-(4-((2-(3,5-dichloro-4-pyridinyl)ethyl)((3,3-dimethylcyclobutyl)methyl)carbamoyl)-5-(trifluoromethyl)-1H-pyrazol-1-yl)-1-methylcyclohexanecarboxylic acid] stands 2.4 nM.
Under `CC1(CN(CCc2c(Cl)cncc2Cl)C(=O)c2cnn([C@H]3CC[C@H](C(=O)O)CC3)c2C(F)(F)F)CCCC1` [Example 557, trans-4-(4-((2-(3,5-dichloro-4-pyridinyl)ethyl)((1-methylcyclopentyl)methyl)carbamoyl)-5-(trifluoromethyl)-1H-pyrazol-1-yl)cyclohexanecarboxylic acid] stands 2.82 nM.
Under `CC1(C)[C@@H]2C[C@H](N(CC(=O)c3c(Cl)cncc3Cl)C(=O)c3cnn([C@H]4CC[C@](C)(C(=O)O)CC4)c3C(F)(F)F)C[C@@H]21` [Example 558, trans-4-(4-((2-(3,5-dichloro-4-pyridinyl)-2-oxoethyl)((1R,3r,5S)-6,6-dimethylbicyclo[3.1.0]hex-3-yl)carbamoyl)-5-(trifluoromethyl)-1H-pyrazol-1-yl)-1-methylcyclohexanecarboxylic acid] stands 2.45 nM; under `CC1(C)CC(CN(CC(=O)c2c(Cl)cncc2Cl)C(=O)c2cnn([C@H]3CC[C@](C)(C(=O)O)CC3)c2C(F)(F)F)C1` [Example 559, trans-4-(4-((2-(3,5-dichloro-4-pyridinyl)-2-oxoethyl)((3,3-dimethylcyclobutyl)methyl)carbamoyl)-5-(trifluoromethyl)-1H-pyrazol-1-yl)-1-methylcyclohexanecarboxylic acid], 7.08 nM; under `CC1(CN(CCc2c(Cl)cncc2Cl)C(=O)c2cnn([C@H]3CC[C@@H](C(=O)O)CC3)c2C(F)(F)F)CCC1` [Example 560, cis-4-(4-((2-(3,5-dichloro-4-pyridinyl)ethyl)((1-methylcyclobutyl)methyl)carbamoyl)-5-(trifluoromethyl)-1H-pyrazol-1-yl)cyclohexanecarboxylic acid], 295 nM.
In the case of `CC1(CN(CCc2c(Cl)cncc2Cl)C(=O)c2cnn([C@H]3CC[C@](C)(C(=O)O)CC3)c2C(F)(F)F)CCC1` [Example 562, trans-4-(4-((2-(3,5-dichloro-4-pyridinyl)ethyl)((1-methylcyclobutyl)methyl)carbamoyl)-5-(trifluoromethyl)-1H-pyrazol-1-yl)-1-methylcyclohexanecarboxylic acid], the IC50 is 3.72 nM.
Under `CC1(CN(CCc2c(Cl)cncc2Cl)C(=O)c2cnn([C@H]3CC[C@@H](C(=O)O)CC3)c2C(F)(F)F)CC1` [Example 563, cis-4-(4-((2-(3,5-dichloro-4-pyridinyl)ethyl)((1-methylcyclopropyl)methyl)carbamoyl)-5-(trifluoromethyl)-1H-pyrazol-1-yl)cyclohexanecarboxylic acid] stands 204 nM; under `CC1(CN(CCc2c(Cl)cncc2Cl)C(=O)c2cnn([C@H]3CC[C@](C)(C(=O)O)CC3)c2C(F)(F)F)CC1` [Example 564, trans-4-(4-((2-(3,5-dichloro-4-pyridinyl)ethyl)((1-methylcyclopropyl)methyl)carbamoyl)-5-(trifluoromethyl)-1H-pyrazol-1-yl)-1-methylcyclohexanecarboxylic acid], 4.17 nM; under `Cc1cc(Cl)c(C(=O)CN(CC2CC3(CC3)C2)C(=O)c2cnn([C@H]3CC[C@@H](C(=O)O)CC3)c2C(F)(F)F)c(Cl)c1` [Example 565, cis-4-(4-((2-(2,6-dichloro-4-methylphenyl)-2-oxoethyl)(spiro[2.3]hex-5-ylmethyl)carbamoyl)-5-(trifluoromethyl)-1H-pyrazol-1-yl)cyclohexanecarboxylic acid], 18.2 nM.
The same measure for `C[C@]1(C(=O)O)CC[C@H](n2ncc(C(=O)N(CC(=O)c3c(Cl)cccc3Cl)CC3CC4(CC4)C3)c2C(F)(F)F)CC1` [Example 566, trans-4-(4-((2-(2,6-dichlorophenyl)-2-oxoethyl)(spiro[2.3]hex-5-ylmethyl)carbamoyl)-5-(trifluoromethyl)-1H-pyrazol-1-yl)-1-methylcyclohexanecarboxylic acid]: 3.09 nM; for `O=C(CN(CC1CC2(CC2)C1)C(=O)c1cnn([C@H]2CC[C@H](C(=O)O)CC2)c1C(F)(F)F)c1c(Cl)cccc1Cl` [Example 567, trans-4-(4-((2-(2,6-dichlorophenyl)-2-oxoethyl)(spiro[2.3]hex-5-ylmethyl)carbamoyl)-5-(trifluoromethyl)-1H-pyrazol-1-yl)cyclohexanecarboxylic acid]: 2.4 nM; for `Cc1cc(Cl)c(C(=O)CN(CC(C)(C)C)C(=O)c2cnn([C@H]3CC[C@](C)(C(=O)O)CC3)c2C(F)(F)F)c(Cl)c1` [Example 568, trans-4-(4-((2-(2,6-dichloro-4-methylphenyl)-2-oxoethyl)(2,2-dimethylpropyl)carbamoyl)-5-(trifluoromethyl)-1H-pyrazol-1-yl)-1-methylcyclohexanecarboxylic acid]: 3.39 nM.
The same measure for `C[C@]1(C(=O)O)CC[C@H](n2ncc(C(=O)N(CC(=O)c3c(Cl)cccc3Cl)CC3CCC4(CC3)CC4)c2C(F)(F)F)CC1` [Example 569, trans-4-(4-((2-(2,6-dichlorophenyl)-2-oxoethyl)(spiro[25]oct-6-ylmethyl)carbamoyl)-5-(trifluoromethyl)-1H-pyrazol-1-yl)-1-methylcyclohexanecarboxylic acid]: 6760 nM; for `C[C@@H]1C[C@H](n2ncc(C(=O)N(CC(=O)c3c(Cl)cccc3Cl)CC3CC(C)(C)C3)c2C(F)(F)F)CC[C@@H]1C(=O)O` [Example 570, (1S,2R,4R)-4-(4-((2-(2,6-dichlorophenyl)-2-oxoethyl)((3,3-dimethylcyclobutyl)methyl)carbamoyl)-5-(trifluoromethyl)-1H-pyrazol-1-yl)-2-methylcyclohexanecarboxylic acid]: 18.6 nM.
